Measured values from US8436186B2, “Thiazolyl piperidine derivatives” (Merck Patent Gesellschaft mit beschrankter Haftung, priority 2008, dated 2013).

target: SphK1 (Homo sapiens, UniProt Q9NYA1); experiment: SphK1 384-well flashplate kinase assay; type: biochemical; settings: enzyme assay
Experimental: The kinase assay is carried out as a 384-well flashplate assay.
5 nM modified SphK1, 800 nM omega-biotinyl-D-erythro-sphingosine and 1 μM ATP (with 0.3 μCi of ^33P-ATP/well) are incubated in a total volume of 50 μl (25 mM HEPES, 5 mM MgCl2, 1 mM dithiothreitol, 0.01% of Brij35, 0.1% of BSA (fatty acid-free), pH 7.4) without or with test substance (5-10 concentrations) at 30° C. for 120 min. The reaction is terminated using 25 μl of 200 mM EDTA solution, filtered off with suction at room temperature after 30 min, and the cavities are washed 3 times with 100 μl of 0.9% NaCl solution. The non-specific proportion of the kinase reaction (blank) is determined using 0.5 mM NaCl. Radioactivity is measured in topcount. IC50 values are calculated using RS1.

SphK1, sequence (Q9NYA1 whole entry): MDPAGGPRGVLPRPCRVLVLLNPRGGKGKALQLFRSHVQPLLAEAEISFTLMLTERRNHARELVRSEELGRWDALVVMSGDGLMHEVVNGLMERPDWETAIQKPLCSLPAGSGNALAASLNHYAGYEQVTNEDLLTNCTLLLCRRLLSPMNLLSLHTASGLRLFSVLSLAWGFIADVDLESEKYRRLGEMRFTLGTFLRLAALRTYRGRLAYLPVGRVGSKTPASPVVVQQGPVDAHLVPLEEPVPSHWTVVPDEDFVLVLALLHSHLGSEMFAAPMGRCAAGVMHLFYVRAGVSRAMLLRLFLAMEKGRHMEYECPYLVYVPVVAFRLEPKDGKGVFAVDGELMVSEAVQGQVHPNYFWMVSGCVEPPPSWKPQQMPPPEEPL

IC50 | SMILES
1 to 10 µM | CC(=O)N1CCC(c2nc(-c3ccc4c(c3)C(C)(C)CCC4(C)C)cs2)CC1 [Compound A80]
0.01 to 1 µM | CC1(C)CCC(C)(C)c2cc(-c3csc(C4CCN(CCN)CC4)n3)ccc21 [Compound A81]
1 to 10 µM | Cc1oncc1S(=O)(=O)N1CCC(c2nc(-c3ccc4c(c3)C(C)(C)CCC4(C)C)cs2)CC1 [Compound A82]
> 10 µM | CC1(C)CCC(C)(C)c2cc(-c3csc(C4CCN(S(C)(=O)=O)CC4)n3)ccc21 [Compound A83]
1 to 10 µM | CC1(C)CCC(C)(C)c2cc(-c3csc(C4CCN(CCCN5CCOCC5)CC4)n3)ccc21 [Compound B1]
0.01 to 1 µM | CC1(C)CCC(C)(C)c2cc(-c3csc(C4CCN(CCCCO)CC4)n3)ccc21 [Compound B2]
0.01 to 1 µM | CC1(C)CCCc2cc(-c3csc(C4CCN(CCCCO)CC4)n3)ccc21 [Compound B3]
0.01 to 1 µM | CC1(C)CC(C)(C)c2cc(-c3csc(C4CCN(CCCO)CC4)n3)ccc21 [Compound B4]
0.01 to 1 µM | CC1(C)CC(C)(C)c2cc(-c3csc(C4CCN(CCCCCO)CC4)n3)ccc21 [Compound B5]
0.01 to 1 µM | CC1(C)CC(C)(C)c2cc(-c3csc(C4CCN(CCCCO)CC4)n3)ccc21 [Compound B6]
0.01 to 1 µM | CC1(C)CCC(C)(C)c2cc(-c3csc(C4CCN(Cc5cc[nH]n5)CC4)n3)ccc21 [Compound B7]
1 to 10 µM | Cn1cccc1CN1CCC(c2nc(-c3ccc4c(c3)C(C)(C)CCC4(C)C)cs2)CC1 [Compound B8]
1 to 10 µM | CC1(C)CCC(C)(C)c2cc(-c3csc(C4CCN(Cc5ccc(CO)o5)CC4)n3)ccc21 [Compound B9]
0.01 to 1 µM | CC1(C)CCC(C)(C)c2cc(-c3csc(C4CCN(CCCCCO)CC4)n3)ccc21 [Compound B10]
1 to 10 µM | CCn1nccc1CN1CCC(c2nc(-c3ccc4c(c3)C(C)(C)CCC4(C)C)cs2)CC1 [Compound B11]
1 to 10 µM | Cc1noc(C)c1CN1CCC(c2nc(-c3ccc4c(c3)C(C)(C)CCC4(C)C)cs2)CC1 [Compound B12]
0.01 to 1 µM | CC1(C)CCC(C)(C)c2cc(-c3csc(C4CCN(Cc5ncc[nH]5)CC4)n3)ccc21 [Compound B13]
1 to 10 µM | CN(C)n1cccc1CN1CCC(c2nc(-c3ccc4c(c3)C(C)(C)CCC4(C)C)cs2)CC1 [Compound B14]
1 to 10 µM | CC1(C)CCC(C)(C)c2cc(-c3csc(C4CCN(C(=O)OCC5CNCCO5)CC4)n3)ccc21 (centres unmarked) [Compound B16]
0.01 to 1 µM | CC1(O)CCCc2cc(-c3csc(C4CCNCC4)n3)ccc21 (centres unmarked) [Compound C2]
0.01 to 1 µM | CC1(C)CCCc2ccc(-c3csc(C4CCNCC4)n3)cc21 [Compound C3]
1 to 10 µM | Cc1cc2c(cc1-c1csc(C3CCNCC3)n1)C(C)(C)CCC2(C)C [Compound C5]
0.01 to 1 µM | c1cc2c(cc1-c1csc(C3CCNCC3)n1)CCCC2 [Compound C6]
0.01 to 1 µM | CC1(C)CC(C)(C)c2cc(-c3csc(C4CCNCC4)n3)ccc21 [Compound C7]
1 to 10 µM | Cc1cc(-c2csc(C3CCNCC3)n2)c(O)c2c1CCC2 [Compound C10]
> 10 µM | CCc1cc2c(cc1-c1csc(C3CCNCC3)n1)C(C)(C)CCC2(C)C [Compound C11]
